Laboratory results taken from publication PMC3199867, “Targeting surface nucleolin with multivalent HB-19 and related Nucant pseudopeptides results in distinct inhibitory mechanisms depending on the malignant tumor cell type” (BMC Cancer, 2011).
pIC50: −log10 of the molar value.

Legend:
SW480 = test: Cell growth / proliferation (cell number); format: cell-based, human; details: for % Growth inhibition After 3 days: SW480, N6 or N7 20 μM, viable cell number vs untreated control, mean of at least 2 independent experiments; for Number of cells / % inhibition: counted seven days after seeding; for Number of cells: control 1,500,000
Description: (§1) Human breast (MDA-MB-231, MDA-MB-435 [37]), prostate (LNCaP, from American Type Culture Collection, ATCC, Rockville, MD), and cervical (HeLa) epithelial cancer cells were grown in DMEM-glutamax medium (Gibco Invitrogen, Cergy-Pontoise, France) containing GlutaMAX™, 4.5 g/l glucose and supplemented with 10% heat-inactivated (56°C for 30 min) fetal bovine serum (FBS; Hyclone, Thermo Fisher Scientific, Inc). Human SW480 cells are derived from a grade 3-4 colon carcinoma, while the highly metastatic counterpart SW620 is established from the lymph node of a person. Both SW480 and SW620 cells (obtained from Francis Raul, IRCAD) are highly tumorigenic in nude mice. They were cultured in D-MEM, 10% FCS. The murine melanoma TIII cell line was obtained from Armelle Prévost-Blondel. Murine T29 lymphoma cells, obtained from Philippe Kastner (CNRS, Strasbourg), have been established from Ik^L/L tumors from mice carrying a hypomorphic mutation (Ik^L/L) in the Ikaros gene encoding a transcription factor that regulates lymphocyte differentiation, and acts also as a tumor suppressor in T lymphocytes. The T29 cells were cultured in RPMI medium containing 25 mM Hepes pH 7.6, 1 mM sodium pyruvate, and 10% FCS. Human leukemia cell lines, Jurkat (acute T cell leukemia), HuT 78 (cutaneous T lymphocyte), RAJI (Burkitt lymphoma), and HL60 (promyelocytic leukemia) were cultured in RPMI-1640 medium (Gibco) containing GlutaMAX™, and supplemented with 10% heat-inactivated FBS as described before. The wild-type Chinese hamster ovary cell line (CHO K1) was purchased from American Type Culture Collection (ATCC; Rockville, MD). The CHO LRP1-null cell line (CHO-13-5-1) was kindly provided by D. Strickland [47]. They were cultured in Ham's F12K medium. All cells were cultured with 10% (v/v) heat inactivated (56°C, 30 min) fetal bovine serum (FBS) (Roche Molecular Biochemicals, Indianapolis, IN) and 50 international units/mL penicillin-streptomycin (Invitrogen). Cell death was monitored conveniently by uptake of the trypan blue dye due to plasma membrane permeability of dying and/or dead cells.

SW620 = test: Cell growth / proliferation (cell number); format: cell-based, human; details: for % Growth inhibition After 3 days: SW620, N6 or N7 20 μM, viable cell number vs untreated control, mean of at least 2 independent experiments; for Number of cells / % inhibition: counted seven days after seeding; for Number of cells: control 1,800,000
Description: as §1

T29 = test: Cell growth / multiplication (viable cell number); format: cell-based, murine; details: for % Growth inhibition After 3 days: T29, N6 or N7 20 μM, viable cell number vs untreated control, mean of at least 2 independent experiments; for pIC50: T29 cells, 0-20 μM, number of viable cells at 3 days post-treatment, read-out: Cell number: IC50 72 hours post-passage; for multiplication index of cells at day 3 compared to day 0: T29 seeded at 150,000 cells/ml, 10 μM (hexavalent), triplicate, control 17.5-fold
Description: as §1
Figure 7 HB-19 and related multivalent Nucant pseudopeptides induce cell death associated with internucleosomal DNA fragmentation. A. Inhibition of cell multiplication by HB-19 and related multivalent Nucant pseudopeptides. […] Cell cultures (in triplicate) were monitored for viable cell number daily for 3 days. The histograms show the mean number of cells/ml ± SD of triplicate samples. The multiplication index of cells at day 3 compared to day 0 (the day of seeding) is given at the top of histogram. At 3 days post passage of T29 cells, the cell multiplication index of cells is 17.5-fold compared to 8.9-, 7.2-, 2.2-, and 1.7-fold in the presence of treatment with HB-19, N3, N6, and N7, respectively. B. N7 inhibits T29 cell multiplication in a dose dependent manner. T29 cells seeded at 100,000/ml in 2 ml in the absence (0 μM) or presence of N7 at various concentrations 2.5, 5, 10 and 20 μM were cultured for 3 days and the number of viable cells was determined at day 1, 2, and 3 post-seeding. The ordinate gives the cell number/ml (the mean of 2 samples) in each culture at day 1, 2, and 3 post-seeding. C. Partial cleavage of surface/cytoplasmic nucleolin. T29 cells were cultured for 45 min with 0 (for control; lanes C), 2 and 10 μM of N6 before preparation of cytoplasmic (that contains both surface and cytoplasmic nucleolin) and nuclear extract and analysis by immunoblotting using rabbit polyclonal antibodies that are directed against the first 26 (panel anti-Nt Ab) and the last 16 amino acids (panel anti-Ct Ab) of human nucleolin, respectively. The nuclear extracts were analyzed by immunoblotting using anti-Nt Ab (Methods). […]

Substance | % Growth inhibition After 3 days (SW480) [%] | % Growth inhibition After 3 days (SW620) [%] | % Growth inhibition After 3 days (T29) [%] | pIC50 (T29) | multiplication index of cells at day 3 compared to day 0 (T29) [fold] | Number of cells (SW480; SW480, 10 μM added once 5 hours after seeding (20,000 cells/ml, 2 ml)) | % inhibition (SW480; SW480, 10 μM added once 5 hours after seeding) [%] | Number of cells (SW480; SW480, 20 μM added once 5 hours after seeding (20,000 cells/ml, 2 ml)) | % inhibition (SW480; SW480, 20 μM added once 5 hours after seeding) [%] | Number of cells (SW620; SW620, 10 μM added once 5 hours after seeding (20,000 cells/ml, 2 ml)) | % inhibition (SW620; SW620, 10 μM added once 5 hours after seeding) [%] | Number of cells (SW620; SW620, 20 μM added once 5 hours after seeding (20,000 cells/ml, 2 ml)) | % inhibition (SW620; SW620, 20 μM added once 5 hours after seeding) [%]
Ac-Lys-Aib-Gly-Lys-Aib-Gly-Lys-Aib-Gly-Lys-Aib-Gly-Lys-Aib-Gly-Lys-Aib-Gly-CONH2 [Nucant N6, Presents hexavalently the pseudo-tripeptide Lysψ(CH2N)-Pro-Arg coupled to the polypeptide template containing Aib] | 25 | 45 | 85 | 5.10 | 2.2 | – | – | – | – | – | – | – | –
Ac-KAKPGKAKPGKAKPG-NH2 [Nucant N7, Presents hexavalently the pseudo-tripeptide Lysψ(CH2N)-Pro-Arg coupled to a similar template as in HB-19] | 25 | 45 | 85 | 5.10 | 1.7 | 1,200,000 | 20 | 900,000 | 40 | 1,000,000 | 44 | 700,000 | 61
